Laboratory results published in patent publication US20100120715A1, “BETA-LACTAMASE INHIBITORS” (priority 2007, published 2010).
Where two headings read alike, the source gives them in different places.

How the values were obtained:
[1] = test system: K. pneumoniae expressing the Class A ESBL CTX-M-15; assay: microbe, parasite or virus in culture; assay type: cell-based; details: in the presence of fixed 8 μg/mL Ceftazidime
Class A ESBL CTXM-15 = molecular target: T1, Class A ESBL CTXM-15 (Escherichia coli, UniProt Q9EXV5); assay: β-lactamase enzyme inhibition (nitrocefin hydrolysis), CTXM-15; assay type: biochemical; details: purified enzyme; nitrocefin 100 μM, PBS pH 7.0; read-out: CTXM-15 IC50 Range
T1 construct: made in house; host or cells: E. coli BL21(DE3)
Outline: (§1)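 Native untagged enzymes were expressed in E. coli BL21(DE3) and purified by cation exchange and gel filtration. Compound series (100–0.005 μM in PBS pH 7.0, before addition of an equal enzyme volume) were preincubated with enzyme 10 min at 37°C. Nitrocefin (100 μM final) hydrolysis was read kinetically at 486 nm for 10 min, and IC50 was taken as 50% reduction of initial rate versus no-inhibitor wells.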

[2] = test system: K. pneumoniae expressing the Class A carbapenemase KPC-2; assay: microbe, parasite or virus in culture; details: in the presence of fixed 8 μg/mL Ceftazidime
Class C P99 AmpC = molecular target: T2, Class C P99 AmpC (Enterobacter cloacae, UniProt P05364); assay type: biochemical; details: purified enzyme; nitrocefin 100 μM, PBS pH 7.0; read-out: P99 AmpC IC50 Range
T2 construct: made in house; host or cells: E. coli BL21(DE3)
Outline: as §1

[3] = test system: E. coli expressing the Class A ESBL SHV-5; assay: microbe, parasite or virus in culture; assay type: cell-based; details: in the presence of fixed 8 μg/mL Ceftazidime
Source text: To determine the ability of test compounds to potentiate the inhibition of the growth of bacterial strains producing beta-lactamase enzymes, classic cell based screening assays were employed. Four bacteria strains producing beta-lactamase enzymes were used: K. pneumoniae expressing the Class A Extended Spectrum Beta-Lactamase (ESBL) CTX-M-15, E. coli expressing the Class A ESBL SHV-5, E. cloacae expressing the Class C P99+, and K. pneumoniae expressing the Class A carbapenemase KPC-2. In order to evaluate the ability of test compounds to inhibit beta-lactamase activity, Applicants used a modification of the broth microdilution assay. The assay was conducted in Cation Adjusted Mueller Hinton Broth (CAMHB, BD # 212322, BD Diagnostic Systems, Sparks, Md.). Bacteria strains were grown for 3-5 hours in CAMBH broth. All four strains were grown in presence of 50 μg/mL ampicillin to ensure resistance is maintained. In the meantime, test compounds were diluted in DMSO to a 0.1 mg/mL stock. The compounds were added to a microtiter plate and were diluted in 2-fold serial dilutions in CAMHB in a final concentration range of 8 μg/mL to 0.015 μg/ml. An overlay of CAMHB containing a cephalosporin was added to the compounds at a final static concentration of 8 μg/ml. […] Each of these compound plates are made in quadruplicate, one for each bacteria strain. In addition to the titration of test compounds the MICs of a panel of cephalosporins is also tested to ensure the strains are behaving consistently from test to test. Once the test compound and cephalosporin are added the plates can be inoculated. Inocula are conducted according to CLSI broth microdilution method. After inoculation the plates are incubated for 16-20 hours at 37° C. then the Minimal Inhibitory Concentration (MIC) of the test compound is determined visually.

[4] = molecular target: T3, Class A carbapenemase KPC-2 (Klebsiella pneumoniae, UniProt Q9F663); assay: β-lactamase enzyme inhibition (nitrocefin hydrolysis), KPC-2; assay type: biochemical; details: purified enzyme; nitrocefin 100 μM, PBS pH 7.0; read-out: KPC-2 IC50 Range
T3 construct: made in house; host or cells: E. coli BL21(DE3)
Outline: as §1

Class A ESBL SHV-5 = molecular target: T4, Class A ESBL SHV-5 (Klebsiella pneumoniae, UniProt P0A3M1); assay type: biochemical, E. coli; details: nitrocefin 100 μM, PBS pH 7.0, read-out: SHV-5 IC50 Range
T4 construct: made in house; host or cells: E. coli BL21(DE3) for purified enzyme; E. coli cells containing SHV-5 for extracts

[5] = cellular extracts of E. coli containing SHV-5 (Examples 2-30)
[6] = purified beta-lactamase enzyme (Examples 1 and 31-64)

T4 sequence (P0A3M1 22-286): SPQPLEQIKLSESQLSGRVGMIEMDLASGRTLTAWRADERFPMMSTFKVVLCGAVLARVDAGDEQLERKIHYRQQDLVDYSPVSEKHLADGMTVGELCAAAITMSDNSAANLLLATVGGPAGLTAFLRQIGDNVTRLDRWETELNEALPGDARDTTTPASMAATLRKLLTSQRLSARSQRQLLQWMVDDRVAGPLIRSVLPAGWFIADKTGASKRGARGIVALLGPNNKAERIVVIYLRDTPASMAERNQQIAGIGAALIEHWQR
T2 sequence (P05364 21-381): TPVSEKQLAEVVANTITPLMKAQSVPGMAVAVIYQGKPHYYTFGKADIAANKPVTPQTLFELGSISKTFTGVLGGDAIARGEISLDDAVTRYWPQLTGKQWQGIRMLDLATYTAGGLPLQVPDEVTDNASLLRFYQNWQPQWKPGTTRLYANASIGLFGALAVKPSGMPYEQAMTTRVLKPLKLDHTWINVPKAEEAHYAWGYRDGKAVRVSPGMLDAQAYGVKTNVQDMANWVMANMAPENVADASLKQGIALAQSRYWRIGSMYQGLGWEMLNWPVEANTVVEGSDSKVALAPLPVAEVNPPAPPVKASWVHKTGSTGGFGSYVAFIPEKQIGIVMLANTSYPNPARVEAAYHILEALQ
T1 sequence (Q9EXV5 entry or part of it): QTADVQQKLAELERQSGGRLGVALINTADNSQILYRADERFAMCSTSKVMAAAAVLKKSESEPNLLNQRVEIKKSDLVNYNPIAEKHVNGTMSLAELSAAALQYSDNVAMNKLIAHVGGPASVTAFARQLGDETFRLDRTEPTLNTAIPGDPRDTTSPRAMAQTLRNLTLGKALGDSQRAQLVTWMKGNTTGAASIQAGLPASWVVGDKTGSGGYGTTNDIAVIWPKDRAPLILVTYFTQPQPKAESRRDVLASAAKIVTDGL
T3 sequence (Q9F663 25-293 limits assumed): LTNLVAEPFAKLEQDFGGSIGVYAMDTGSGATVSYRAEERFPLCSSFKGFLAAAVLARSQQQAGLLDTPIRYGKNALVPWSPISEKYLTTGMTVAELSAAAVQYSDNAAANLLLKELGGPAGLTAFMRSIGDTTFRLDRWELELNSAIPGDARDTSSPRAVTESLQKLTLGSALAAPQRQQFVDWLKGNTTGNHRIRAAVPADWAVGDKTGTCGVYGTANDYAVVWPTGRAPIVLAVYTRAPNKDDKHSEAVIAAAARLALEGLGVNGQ

Structure (SMILES) | MIC of example compound, K. pneumoniae CTX-M-15 + 8 μg/mL CAZ [1] | IC50 (Class A ESBL CTXM-15) [nM] | MIC of example compound, K. pneumoniae KPC-2 + 8 μg/mL CAZ [2] | IC50 (Class C P99 AmpC) [nM] | MIC of example compound, E. coli SHV-5 + 8 μg/mL CAZ [3] | IC50 [4] [nM] | IC50 (Class A ESBL SHV-5; [5]) [nM] | IC50 (Class A ESBL SHV-5; [6]) [nM]
O=C(CO)N[C@@H](Cc1cccc(C(=O)O)c1O)B(O)O [Example 19, (1R)-1-Hydroxyacetylamino-1-(3-carboxy-2-hydroxy)benzyl-methyl boronic acid] | C (C represents an MIC of <1 μg/mL) | 10 to 100 | C (C represents an MIC of <1 μg/mL) | 100 to 1000 | A (A represents an MIC >8 μg/mL) | 10 to 100 | 100 to 1000 | 
O=C(O)c1cccc(C[C@H](NC(=O)[C@@H]2CCCN2)B(O)O)c1O.O=CO [Example 64, (1R),(2′S)-1-(pyrrolidine-2-carbonylamino)-2-(2-hydroxy-3-carboxyphenyl)ethyl-1-boronic acid formate] | A (A represents an MIC >8 μg/mL) | 100 to 1000 | C (C represents an MIC of <1 μg/mL) | 10 to 100 | A (A represents an MIC >8 μg/mL) | 100 to 1000 |  | > 1000
O=C(Cc1cccs1)N[C@@H](Cc1cccc(C(=O)O)c1O)B(O)O [Example 1, (1R)-1-(2-thiophene-2-yl-acetylamino)-2-(2-hydroxy-3-carboxyphenyl)ethyl-1-boronic acid] | C (C represents an MIC of <1 μg/mL) | < 10 | C (C represents an MIC of <1 μg/mL) | < 10 | C (C represents an MIC of <1 μg/mL) | < 10 |  | < 10
Cc1nc(-c2cccc(C(=O)N[C@@H](Cc3cccc(C(=O)O)c3O)B(O)O)c2)no1 [Example 47, (1R)-1-[3-(5-methyl-[1,2,4]oxadiazol-3-yl)-benzoyl]-amino-1-(3-carboxy-2-hydroxy)benzyl-methylboronic acid] | A (A represents an MIC >8 μg/mL) | < 10 |  | < 10 | A (A represents an MIC >8 μg/mL) | < 10 |  | 10 to 100
COc1ccccc1C(=O)N[C@@H](Cc1cccc(C(=O)O)c1O)B(O)O [Example 34, (1R)-1-(2-methoxybenzoylamino)-2-(2-hydroxy-3-carboxyphenyl)ethyl-1-boronic acid] |  | < 10 | C (C represents an MIC of <1 μg/mL) | < 10 | A (A represents an MIC >8 μg/mL) | 10 to 100 |  | 100 to 1000
O=C(O)COc1cccc(CC(=O)N[C@@H](Cc2cccc(C(=O)O)c2O)B(O)O)c1 [Example 7, (1R)-1-[3-(carboxymethoxy)-phenyl]acetylamino-(3-carboxy-2-hydroxy)benzyl-methylboronic acid] | C (C represents an MIC of <1 μg/mL) | < 10 | C (C represents an MIC of <1 μg/mL) | < 10 | C (C represents an MIC of <1 μg/mL) |  | < 10 | 
Cn1nc(-c2ccccc2)cc1C(=O)N[C@@H](Cc1cccc(C(=O)O)c1O)B(O)O [Example 44, (1R)-1-(1-methyl-3-phenyl-1H-pyrazole-5-carbonyl-amino)-2-(2-hydroxy-3-carboxyphenyl)ethyl-1-boronic acid] | A (A represents an MIC >8 μg/mL) | < 10 |  | < 10 | A (A represents an MIC >8 μg/mL) | 10 to 100 |  | < 10
